Laboratory results reported in patent US20030180341A1, “Biocompatible hydrophilic films from polymeric mini-emulsions for application to skin” (priority 2002, published 2003).

Columns and labels:
[1] = Antifungal properties of films containing caprylic fatty acid; settings: dried film
[2] = Antibacterial properties of films and mini-emulsions containing caprylic fatty acid
[3] = Anti-microbial effect of mini-emulsion/film compositions with sodium hypochlorite; settings: provided in the mini-emulsion/film compositions, preferably between about 0.1 and about 0.5% by weight of solids

Row | Structure (SMILES) | antifungal properties [1] | antibacterial effect ([2]; dried film) | antibacterial properties ([2]; liquid mini-emulsion) | anti-microbial effect [3]
1 | CCCCCCCC(=O)O [caprylic fatty acid] | broad spectrum antifungal properties | mild antibacterial effect | broad spectrum antibacterial properties | –
2 | OCl [sodium hypochlorite] | – | – | – | effective as a broad spectrum anti-microbial
